Data: patent publication US20030113742A1, “Methods and compositions for the modulation of biofilm formation” (priority 2001, published 2003)

What was measured:
[1] = system: P. aeruginosa biofilms; assay: Plate counting of biofilm cell numbers after tobramycin; assay type: cell-based, Pseudomonas aeruginosa PAO1; conditions: 5 μg/ml
Protocol: (§1) P. aeruginosa PAO1 was grown at 37° C. with aeration in chemostat vessels (100 ml of medium, dilution rate, 0.2 h^−1). The growth medium consisted of 0.5% NH4Cl, 0.25% NaCl, 0.015% KH2PO4, 1.5% MOPS (pH, 7.0), and 0.015% casamino acids. For biofilms, the chemostat vessel contained 100 g of sterilized granite pebbles (approximately 70 pebbles). Vessels were inoculated with approximately 10^6 P. aeruginosa cells. For biofilm cultures, cells were allowed to attach to the rocks for 24 h prior to initiating the flow of medium, after which flow was initiated at a high rate (100 ml/h). After 2 h at this flow rate, more than 99% of all unattached bacteria were washed away. Flow was then decreased to give a final dilution rate identical to that in the planktonic chemostat. After 5 days cell numbers in the biofilm and planktonic chemostats were similar ([…]) as determined with standard plate counting techniques. To remove biofilm bacteria for plate counting, rocks were vortexed for 2 minutes in 5 ml phosphate buffered saline. A small planktonic population was present in the biofilm reactors throughout the experiment, but never represented more than 0.1% of the total chemostat population.
The existence in a biofilm might induce moderate levels of resistance to all antimicrobial treatments. […]

[2] = system: P. aeruginosa biofilms; assay: Microarray of genes regulated by tobramycin in P. aeruginosa biofilms; assay type: cell-based, Pseudomonas aeruginosa PAO1; conditions: for Fold activation ± SE: tobramycin 5 μg/ml 24 h, treated vs untreated biofilms
Protocol: as §1
RNA was isolated from planktonic and biofilm bacteria using the Trizol reagent (Life Technologies, Grand Island, N.Y.). Planktonic cells were pelleted by centrifugation (10,000 rpm for 10 min) at 4° C. For biofilm RNA isolation, rocks containing biofilm bacteria were rinsed with sterile medium and suspended in Trizol reagent. After vortexing for 1 min the rocks were removed and the remaining cell material was sonicated for 10 s. Insoluble material was removed by centrifugation and RNA was isolated as described above. Contaminating DNA was eliminated by DNase treatment, and RNA was isolated by phenol-chloroform extraction and precipitation with LiCl. cDNA probes were produced from RNA using random primers (NSNSNSNSNS) and Cy5-dCTP or Cy3-dCTP (Amersham, Buckinghamshire, UK) according to previously described procedures (J. K. Ichikawa, et al., Proc. Natl. Acad. Sci. U.S.A. 97, 9659 (2000)). To avoid complications associated with Cy5-dCTP and Cy3-dCTP incorporation rates into resulting cDNA, each RNA comparison was performed with both dye combinations on separate microarrays.
The microarrays were glass microscope slides containing representative gene-specific DNA fragments from 5,500 of the estimated 5,570 open reading frames (ORFs) of P. aeruginosa. The microarrays were printed with a Generation II Array printer (Molecular Dynamics), and the hybridized microarrays were images with a Generation II scanning confocal fluorescent microscope (Molecular Dynamics).
The existence in a biofilm might induce moderate levels of resistance to all antimicrobial treatments. This could afford cells in a biofilm the opportunity to respond to an antibiotic by inducing genes more specific to that antibiotic. Thus, biofilms exposed to tobramycin were compared with untreated biofilms. Tobramycin (5 μg/ml) was added to influent medium after 4 days of biofilm growth. After 24 h, biofilms were removed and processed for RNA.
The results (shown in Table 2, below) are from two independent experiments (1 standard error of the mean, SE). Positive values represent activation and negative values represent repression. Gene identifications and P. aeruginosa ORF numbers were obtained from the Pseudomonas Genome Project website. Genes that were repressed in biofilms and activated by tobramycin are underlined. Genes that were activated in biofilms and repressed by tobramycin are shown in italics and bold-face type. Eight of the 20 genes identified as being differentially expressed in tobramycin-treated biofilms (Table 2) were also identified as being differentially expressed in biofilms as compared to planktonic bacterial cells. […]

[3] = system: P. aeruginosa wild-type and rpoS mutant biofilms; assay: Killing of wild-type and rpoS mutant biofilms by tobramycin; assay type: cell-based, Pseudomonas aeruginosa; conditions: increasing amounts of tobramycin
Protocol: To examine the involvement of rpoS in biofilm development, the wild-type strain and an isogenic rpoS mutant strain were grown in flow cell reactors and both were tagged with a gfp plasmid which expresses green fluorescent protein (GFP) (Whitely, et al. (2000) J. Bacteriology 182:4356-4360). The P. aeruginosa biofilms that developed in the flow cells were examined by scanning confocal laser microscopy. Within four hours, differences between the rpoS mutant and the wild-type biofilms were evident. The mutant had attached to and covered much more of the glass surface. In a quantitative microtitre dish assay, biofilm formation of the parent strain was 38% of the rpoS mutant. After 24 hours, the mutant biofilm had matured and large structured groups of bacteria were evident.
To assess whether rpoS influences the susceptibility of P. aeruginosa biofilms to antibiotics, biofilms of the P. aeruginosa wild-type and rpoS mutant were treated with increasing amounts of the aminoglycoside antibiotic tobramycin. […] These studies confirm that the microarray experiment, as described herein, identified a gene important for biofilm development and antibiotic susceptibility.

[4] = system: planktonic P. aeruginosa PAO1; assay: Minimum inhibitory concentration for planktonic cells; assay type: cell-based, Pseudomonas aeruginosa PAO1
[5] = tobramycin-treated vs untreated biofilms, 7× MIC for planktonic cells

NC[C@H]1O[C@H](O[C@H]2[C@H](O)[C@@H](O[C@H]3O[C@H](CO)[C@@H](O)[C@H](N)[C@H]3O)[C@H](N)C[C@@H]2N)[C@H](N)C[C@@H]1O [tobramycin]
effect on cell numbers in biofilms [1]: did not significantly affect cell numbers in biofilms
Fold activation ± SE ([2]; gene: Conserved hypothetical protein (PA2498)): 2.9 ± 0.6 Fold
Fold activation ± SE ([2]; gene: Conserved hypothetical protein (PA3463)): 8.3 ± 3.2 Fold
Fold activation ± SE ([2]; gene: Conserved hypothetical protein (PA3785)): 5.0 ± 1.3 Fold
Fold activation ± SE ([2]; gene: Conserved hypothetical protein (PA3819)): 2.1 ± 0.3 Fold
Fold activation ± SE ([2]; gene: DnaK (PA4761)): 2.7 ± 0.4 Fold
Fold activation ± SE ([2]; gene: GroES (PA4386)): 5.8 ± 1.1 Fold
Fold activation ± SE ([2]; gene: Hypothetical protein (PA1110)): 8.7 ± 1.7 Fold
Fold activation ± SE ([2]; gene: Hypothetical protein (PA1870), negative = repression): −6.4 ± 1.5 Fold
Fold activation ± SE ([2]; gene: Hypothetical protein (PA1893), negative = repression): −2.4 ± 0.3 Fold
Fold activation ± SE ([2]; gene: Hypothetical protein (PA2703)): 19.3 ± 3.7 Fold
Fold activation ± SE ([2]; gene: Hypothetical protein (PA3884), negative = repression): −14.7 ± 5.7 Fold
Fold activation ± SE ([2]; gene: Hypothetical protein (PA4326)): 23.2 ± 7.5 Fold
Fold activation ± SE ([2]; gene: Hypothetical protein of bacteriophage PF1 (PA0721), negative = repression): −3.9 ± 1.0 Fold
Fold activation ± SE ([2]; gene: Hypothetical protein of bacteriophage PF1 (PA0725), negative = repression): −3.1 ± 0.5 Fold
Fold activation ± SE ([2]; gene: Probable DNA binding protein (PA5348)): 18.1 ± 4.9 Fold
Fold activation ± SE ([2]; gene: Probable drug efflux protein (PA1541)): 4.7 ± 1.4 Fold
Fold activation ± SE ([2]; gene: Probable metal transporting P-type ATPase (PA3920)): 3.6 ± 1.1 Fold
Fold activation ± SE ([2]; gene: Probable transcriptional regulator (PA3574)): 3.3 ± 0.6 Fold
Fold activation ± SE ([2]; gene: Ribosome modulation factor (PA3049)): 24.7 ± 11.4 Fold
Fold activation ± SE ([2]; gene: Urease beta subunit (PA4867), negative = repression): −3.7 ± 1.1 Fold
number of genes activated by tobramycin [2, 5]: 14
number of genes differentially expressed in tobramycin-treated biofilms [2, 5]: Twenty
number of genes repressed by tobramycin [2, 5]: 6
resistance of rpoS mutant biofilms to killing by tobramycin compared with wild-type biofilms [3]: much more resistant
5 μg/ml concentration as multiple of the minimum inhibitory concentration [4]: approximately 7 ×
